Drawing on patent publication US8138189B2, “Substituted benzene compounds as modulators of the glucocorticoid receptor” (Hoffman-La Roche Inc., priority 2009, dated 2012), this text covers Ki for 18 molecules.

Structures are written as SMILES.

The target of the experiment is T1, full length human recombinant glucocorticoid receptor (Homo sapiens, UniProt P04150).
T1 construct: partially purified full length human recombinant glucocorticoid receptor; purchased Panvera/Invitrogen PV4302
T1 sequence (P04150 1-777): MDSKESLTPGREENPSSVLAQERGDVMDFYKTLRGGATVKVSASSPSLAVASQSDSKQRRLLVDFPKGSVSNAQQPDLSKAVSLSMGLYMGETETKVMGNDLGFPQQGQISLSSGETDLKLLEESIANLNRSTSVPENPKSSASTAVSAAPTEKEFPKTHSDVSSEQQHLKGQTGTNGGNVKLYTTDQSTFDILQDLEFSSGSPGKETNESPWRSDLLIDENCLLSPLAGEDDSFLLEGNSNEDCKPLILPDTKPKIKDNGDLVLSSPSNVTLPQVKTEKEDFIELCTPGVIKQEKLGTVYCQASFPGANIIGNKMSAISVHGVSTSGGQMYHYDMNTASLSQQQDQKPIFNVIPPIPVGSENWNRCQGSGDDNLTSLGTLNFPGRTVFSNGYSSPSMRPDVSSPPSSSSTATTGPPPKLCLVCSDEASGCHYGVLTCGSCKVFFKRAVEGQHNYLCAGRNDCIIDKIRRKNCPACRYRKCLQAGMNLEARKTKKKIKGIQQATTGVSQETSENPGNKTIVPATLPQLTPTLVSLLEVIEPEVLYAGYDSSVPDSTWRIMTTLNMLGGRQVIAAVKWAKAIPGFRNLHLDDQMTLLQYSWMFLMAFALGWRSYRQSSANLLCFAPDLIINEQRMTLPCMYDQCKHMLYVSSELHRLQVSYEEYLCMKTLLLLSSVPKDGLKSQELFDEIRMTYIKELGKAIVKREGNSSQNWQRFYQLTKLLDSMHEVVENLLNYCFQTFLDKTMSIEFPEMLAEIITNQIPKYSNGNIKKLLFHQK
The experiment is described as follows: Glucocorticoid Receptor Binding Assay (fluorescence polarization competitor assay, Fluormone GS Far Red tracer). As for the experimental part:
Glucocorticoid Receptor Binding Assay
The ability of the substances to bind to the glucocorticoid receptor was determined with the help of a commercial Glucocorticoid Receptor Competitor Assay far red kit provided by Panvera/Invitrogen (PV4302). This kit is used as provided by the supplier. It contains some partially purified full length human recombinant glucocorticoid receptor, a coactivator related GR stabilizing peptide, a tight-binding fluorescent GR ligand Fluormone™ GS Far Red as labeled tracer and a screening buffer. All reagents are prepared and the assay is run according to the recommendations of the kit manufacturer.
Briefly, the GR stabilizing peptide and the human recombinant glucocorticoid receptor are both diluted with the screening buffer (pH 7.4) and are gently mixed (no vortexing) just before the assay and kept on ice until use. The fluorescent-labeled ligand is also diluted with the screening buffer just before the assay and kept on ice until use. The substances to test are pre-diluted in pure DMSO then some water is added to get an intermediate 4.2% DMSO stock solution. Ten microliter of the intermediate stock solution is gently mixed with 5 μl of diluted fluorescent-labeled ligand and 5 μl of diluted human recombinant glucocorticoid receptor in a 384-well plate (low volume, ultraclear, glass plate from Greiner ref 788896). The plate is centrifuged, sealed and incubated for 3 hours at 22° C. in the dark. The polarized fluorescence is measured with a Zeiss-HTS reader or any equivalent equipment (610-660 nm).
All compounds were tested to determine IC50 in a serial dilution experiment. The concentration at which 50% inhibition of the fluorescent GR ligand Fluormone™ GS Far Red is obtained (the IC50) is determined after fitting with a sigmoidal dose-response model of a plot of the logarithm of the concentration versus percent inhibition measured for the different concentrations. Ki's were calculated from IC50 based on Cheng-Prusoff equation (Cheng, Y, Prusoff, W H (1973) Biochem Pharmacol 22, 3099-3108): Ki=IC50/[1+D/Kd] wherein D is the concentration of the fluorescent ligand and Kd is the binding constant for the fluorescent ligand binding to the receptor under the conditions used in the competition experiment.
(In general: Fluorescence polarisation rises when a labelled molecule tumbles more slowly, as on binding a larger partner.)
Usually Ki stands for a dissociation constant, usually derived from enzyme kinetics or from competition with a known ligand. As for `CCOC(=O)c1cc(-c2ccc([C@H](C)[C@](O)(c3ccc(=O)n(CC)c3)C(F)(F)F)c(Cl)c2)ccc1F` (relative stereo) [Example 183, 3′-Chloro-4′-[2-(1-ethyl-6-oxo-1,6-dihydro-pyridin-3-yl)-3,3,3-trifluoro-2-hydroxy-1-methyl-propyl]-4-fluoro-biphenyl-3-carboxylic acid ethyl ester], the Ki amounted to 7.5 nM.

Regarding `CCn1cc([C@@](O)([C@@H](C)c2ccc(-c3ccc(C(=O)O)c(F)c3)cc2Cl)C(F)(F)F)ccc1=O` (relative stereo) [Example 186, 3′-Chloro-4′-[2-(1-ethyl-6-oxo-1,6-dihydro-pyridin-3-yl)-3,3,3-trifluoro-2-hydroxy-1-methyl-propyl]-3-fluoro-biphenyl-4-carboxylic acid], the Ki is 68.2 nM.

Consider `COC(=O)c1ccc(Oc2ccc(Cl)c([C@H](C)[C@](O)(c3ccc(=O)n(C)c3)C(F)(F)F)c2)cc1Cl` (relative stereo) [Example 189, 2-Chloro-4-{4-chloro-3-[3,3,3-trifluoro-2-hydroxy-1-methyl-2-(1-methyl-6-oxo-1,6-dihydro-pyridin-3-yl)-propyl]-phenoxy}-benzoic acid methyl ester], for which the Ki was found to be 5.5 nM.

On to `COC(=O)c1ccc(Oc2ccc([C@@H](C)[C@@](O)(c3ccc(=O)n(C)c3)C(F)(F)F)c(Cl)c2Cl)cc1` (relative stereo) [Example 197, 4-{2,3-Dichloro-4-[3,3,3-trifluoro-2-hydroxy-1-methyl-2-(1-methyl-6-oxo-1,6-dihydro-pyridin-3-yl)-propyl]-phenoxy}-benzoic acid methyl ester], for which the Ki stood at 1.8 nM.

With `COC(=O)c1cnc(Oc2ccc([C@H](C)[C@](O)(c3cc(C)c(=O)n(C)c3)C(F)(F)F)c(Cl)c2)cc1C(F)(F)F` (relative stereo) [Example 205, 6-{3-Chloro-4-[2-(1,5-dimethyl-6-oxo-1,6-dihydro-pyridin-3-yl)-3,3,3-trifluoro-2-hydroxy-1-methyl-propyl]-phenoxy}-4-trifluoromethyl-nicotinic acid methyl ester], the Ki stood at 1.3 nM.

Consider `Cc1cc([C@@](O)([C@@H](C)c2ccc(Oc3ccc(C(=O)O)c(Cl)c3)cc2Cl)C(F)(F)F)cn(C)c1=O` (relative stereo) [Example 208, 2-Chloro-4-{3-chloro-4-[2-(1,5-dimethyl-6-oxo-1,6-dihydro-pyridin-3-yl)-3,3,3-trifluoro-2-hydroxy-1-methyl-propyl]-phenoxy}-benzoic acid], for which the Ki was 0.4 nM.

Regarding `CCOC(=O)c1cc(Oc2ccc([C@H](C)[C@](O)(c3cc(C)c(=O)n(C)c3)C(F)(F)F)c(Cl)c2)ccc1Cl` (relative stereo) [Example 210, 2-Chloro-5-{3-chloro-4-[2-(1,5-dimethyl-6-oxo-1,6-dihydro-pyridin-3-yl)-3,3,3-trifluoro-2-hydroxy-1-methyl-propyl]-phenoxy}-benzoic acid ethyl ester], the Ki is 2 nM.

`Cc1cc([C@@](O)([C@@H](C)c2ccc(Oc3ccc(F)c(C(=O)O)c3)cc2Cl)C(F)(F)F)cn(C)c1=O` (relative stereo) [Example 213, 5-{3-Chloro-4-[2-(1,5-dimethyl-6-oxo-1,6-dihydro-pyridin-3-yl)-3,3,3-trifluoro-2-hydroxy-1-methyl-propyl]-phenoxy}-2-fluoro-benzoic acid]: the Ki was 0.4 nM.

As for `Cc1cc([C@@](O)([C@@H](C)c2ccc(Oc3ccc(C(=O)O)cc3F)cc2Cl)C(F)(F)F)cn(C)c1=O` (relative stereo) [Example 216, 4-{3-Chloro-4-[2-(1,5-dimethyl-6-oxo-1,6-dihydro-pyridin-3-yl)-3,3,3-trifluoro-2-hydroxy-1-methyl-propyl]-phenoxy}-3-fluoro-benzoic acid], the Ki was determined as 0.2 nM.

As to `COC(=O)c1ccc(Oc2ccc([C@H](C)[C@](O)(c3cc(C)c(=O)n(C)c3)C(F)(F)F)c(Cl)c2)nc1` (relative stereo) [Example 217, 6-{3-Chloro-4-[2-(1,5-dimethyl-6-oxo-1,6-dihydro-pyridin-3-yl)-3,3,3-trifluoro-2-hydroxy-1-methyl-propyl]-phenoxy}-nicotinic acid methyl ester], the Ki turned out to be 2.9 nM.

`C[C@H](c1ccc(-c2ccc(F)c(C(=O)O)c2)cc1Cl)[C@@](O)(c1cnc2ccccc2c1)C(F)(F)F` (relative stereo) [Example 226, 3′-Chloro-4-fluoro-4′-(3,3,3-trifluoro-2-hydroxy-1-methyl-2-quinolin-3-yl-propyl)-biphenyl-3-carboxylic acid]: the Ki came out at 24.4 nM.

Take `C[C@H](c1ccc(Oc2ncc(C(=O)O)cc2Cl)cc1Cl)[C@@](O)(c1ccc2nccnc2c1)C(F)(F)F` (relative stereo) [Example 227, 5-Chloro-6-[3-chloro-4-(3,3,3-trifluoro-2-hydroxy-1-methyl-2-quinoxalin-6-yl-propyl)-phenoxy]-nicotinic acid]: the Ki was found to be 14.3 nM.

Take `Cc1cc([C@](O)([C@H](C)c2ccc(-c3ccc(C(=O)O)c(F)c3)cc2Cl)C(F)(F)F)sc1C#N` (relative stereo) [Example 229, 3′-Chloro-4′-[2-(5-cyano-4-methyl-thiophen-2-yl)-3,3,3-trifluoro-2-hydroxy-1-methyl-propyl]-3-fluoro-biphenyl-4-carboxylic acid]: the Ki came to 11.2 nM.

With `Cc1cc([C@](O)([C@H](C)c2ccc(Oc3ncc(C(=O)O)cc3Cl)cc2Cl)C(F)(F)F)cnc1C#N` (relative stereo) [Example 231, 5-Chloro-6-{3-chloro-4-[2-(6-cyano-5-methyl-pyridin-3-yl)-3,3,3-trifluoro-2-hydroxy-1-methyl-propyl]-phenoxy}-nicotinic acid], the Ki worked out at 1.7 nM.

For `COC(=O)c1cnc(Oc2ccc([C@@H](C)[C@@](O)(c3ccc(=O)n(C)c3)C(F)(F)F)c(Cl)c2Cl)cn1` (relative stereo) [Example 237, 5-{2,3-Dichloro-4-[3,3,3-trifluoro-2-hydroxy-1-methyl-2-(1-methyl-6-oxo-1,6-dihydro-pyridin-3-yl)-propyl]-phenoxy}-pyrazine-2-carboxylic acid methyl ester], the Ki came out at 24.3 nM.

As to `CCOC(=O)C(C)(C)Oc1ccc([C@H](C)[C@](O)(c2ccc(=O)n(C)c2)C(F)(F)F)c(Cl)c1Cl` (relative stereo) [Example 239, 2-{2,3-Dichloro-4-[3,3,3-trifluoro-2-hydroxy-1-methyl-2-(1-methyl-6-oxo-1,6-dihydro-pyridin-3-yl)-propyl]-phenoxy}-2-methyl-propionic acid ethyl ester], the inhibition constant Ki was found to be 14.5 nM.

Take `Cc1cc(C(=O)O)cnc1Oc1ccc([C@H](C)[C@](O)(c2cc(C)c(=O)n(C)c2)C(F)(F)F)c(Cl)c1` (relative stereo) [Example 252, 6-{3-Chloro-4-[2-(1,5-dimethyl-6-oxo-1,6-dihydro-pyridin-3-yl)-3,3,3-trifluoro-2-hydroxy-1-methyl-propyl]-phenoxy}-5-methyl-nicotinic acid]: the Ki was determined as 1.1 nM.

Regarding `COC(=O)c1cnc(Oc2ccc([C@H](C)[C@](O)(c3cc(C)c(=O)n(C)c3)C(F)(F)F)c(Cl)c2)nc1` (relative stereo) [Example 253, 2-{3-Chloro-4-[2-(1,5-dimethyl-6-oxo-1,6-dihydro-pyridin-3-yl)-3,3,3-trifluoro-2-hydroxy-1-methyl-propyl]-phenoxy}-pyrimidine-5-carboxylic acid methyl ester], the Ki turned out to be 1.5 nM.
